# Measured values from ChEMBL document CHEMBL1149870, “Synthesis and antibacterial activity of egonol derivatives” (2008).
# Active and inactive are the calls of the source. The rule behind the calls is not given here.
# Experiments:
# Assay type in all cases: functional
# [1] = tested on: Staphylococcus aureus; assay: Antibacterial activity against Staphylococcus aureus by Muller Hilton broth method
# [2] = tested on: Bacillus subtilis; assay: Antibacterial activity against Bacillus subtilis by Muller Hilton broth method
# [3] = tested on: Candida albicans; assay: Antifungal activity against Candida albicans by Muller Hilton broth method
# [4] = tested on: Escherichia coli; assay: Antibacterial activity against Escherichia coli by Muller Hilton broth method
SMILES,MIC [1],MIC [2],MIC [3],MIC [4],Activity [1],Activity [4],Activity [3]
COc1cc(CCC=O)cc2cc(-c3ccc4c(c3)OCO4)oc12,64 µg/mL,256 µg/mL,128 µg/mL,800 µg/mL,,,
COc1cc(CCCO)cc2c([N+](=O)[O-])c(-c3ccc4c(c3)OCO4)oc12,,800 µg/mL,800 µg/mL,,inactive,inactive,
COc1cc(CCCO)cc2cc(-c3ccc4c(c3)OCO4)oc12 [EGONOL],800 µg/mL,800 µg/mL,800 µg/mL,800 µg/mL,,,
COc1cc(CCCOCCCBr)cc2cc(-c3ccc4c(c3)OCO4)oc12,256 µg/mL,256 µg/mL,800 µg/mL,800 µg/mL,,,
COc1cc(CCCBr)cc2cc(-c3ccc4c(c3)OCO4)oc12,800 µg/mL,400 µg/mL,400 µg/mL,800 µg/mL,,,
COc1cc(CCCOC=O)cc2cc(-c3ccc4c(c3)OCO4)oc12,400 µg/mL,400 µg/mL,400 µg/mL,400 µg/mL,,,

# Further compounds by falling MIC [2], results first:
MIC [1],MIC [2],MIC [3],MIC [4],SMILES,Activity [1],Activity [4],Activity [3]
800 µg/mL,800 µg/mL,800 µg/mL,800 µg/mL,COc1c(Br)c(CCCO)cc2cc(-c3ccc4c(c3)OCO4)oc12,,,
800 µg/mL,800 µg/mL,800 µg/mL,800 µg/mL,COc1cc(CCCOC(=O)c2ccccc2)cc2cc(-c3ccc4c(c3)OCO4)oc12,,,
800 µg/mL,800 µg/mL,,800 µg/mL,COc1cc(CCCC#N)cc2cc(-c3ccc4c(c3)OCO4)oc12,,,inactive
800 µg/mL,800 µg/mL,800 µg/mL,800 µg/mL,COc1cc(CCCI)cc2cc(-c3ccc4c(c3)OCO4)oc12,,,
256 µg/mL,128 µg/mL,64 µg/mL,256 µg/mL,COc1cc(CCCCl)cc2cc(-c3ccc4c(c3)OCO4)oc12,,,
